Assay results from article PMC6009956, “Design, synthesis and biological activity of N^4-phenylsubstituted-7H-pyrrolo[2,3-d]pyrimidin-4-amines as dual inhibitors of aurora kinase A and epidermal growth factor receptor kinase” (Journal of Enzyme Inhibition and Medicinal Chemistry, 2017).
Read-outs that look alike come from different tables or passages of the source.

Experiments:
aurora A kinase (AURKA) = biological target: T1, aurora A kinase (AURKA) (Homo sapiens, UniProt O14965); assay: ADP-Glo kinase assay, Aurora A; assay type: biochemical
T1 construct: purchased BPS Bioscience (assay run externally by the vendor)
T1 sequence (O14965 1-403): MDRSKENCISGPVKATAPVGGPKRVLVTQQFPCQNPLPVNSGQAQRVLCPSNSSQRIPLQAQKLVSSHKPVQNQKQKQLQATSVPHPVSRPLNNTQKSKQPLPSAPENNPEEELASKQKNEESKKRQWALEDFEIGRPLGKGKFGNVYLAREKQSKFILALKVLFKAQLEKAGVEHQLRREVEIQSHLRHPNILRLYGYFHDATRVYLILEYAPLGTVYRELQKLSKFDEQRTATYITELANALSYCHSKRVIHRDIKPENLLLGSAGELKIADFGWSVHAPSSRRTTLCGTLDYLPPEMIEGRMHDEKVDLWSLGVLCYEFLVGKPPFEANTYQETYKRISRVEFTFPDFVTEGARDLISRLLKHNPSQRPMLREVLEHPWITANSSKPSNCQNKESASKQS

EGFR = EGFR (Homo sapiens, UniProt P00533); assay: ADP-Glo kinase assay, EGFR; assay type: biochemical; design: purchased BPS Bioscience (assay run externally by the vendor)
Chain of EGFR (P00533 25-1210): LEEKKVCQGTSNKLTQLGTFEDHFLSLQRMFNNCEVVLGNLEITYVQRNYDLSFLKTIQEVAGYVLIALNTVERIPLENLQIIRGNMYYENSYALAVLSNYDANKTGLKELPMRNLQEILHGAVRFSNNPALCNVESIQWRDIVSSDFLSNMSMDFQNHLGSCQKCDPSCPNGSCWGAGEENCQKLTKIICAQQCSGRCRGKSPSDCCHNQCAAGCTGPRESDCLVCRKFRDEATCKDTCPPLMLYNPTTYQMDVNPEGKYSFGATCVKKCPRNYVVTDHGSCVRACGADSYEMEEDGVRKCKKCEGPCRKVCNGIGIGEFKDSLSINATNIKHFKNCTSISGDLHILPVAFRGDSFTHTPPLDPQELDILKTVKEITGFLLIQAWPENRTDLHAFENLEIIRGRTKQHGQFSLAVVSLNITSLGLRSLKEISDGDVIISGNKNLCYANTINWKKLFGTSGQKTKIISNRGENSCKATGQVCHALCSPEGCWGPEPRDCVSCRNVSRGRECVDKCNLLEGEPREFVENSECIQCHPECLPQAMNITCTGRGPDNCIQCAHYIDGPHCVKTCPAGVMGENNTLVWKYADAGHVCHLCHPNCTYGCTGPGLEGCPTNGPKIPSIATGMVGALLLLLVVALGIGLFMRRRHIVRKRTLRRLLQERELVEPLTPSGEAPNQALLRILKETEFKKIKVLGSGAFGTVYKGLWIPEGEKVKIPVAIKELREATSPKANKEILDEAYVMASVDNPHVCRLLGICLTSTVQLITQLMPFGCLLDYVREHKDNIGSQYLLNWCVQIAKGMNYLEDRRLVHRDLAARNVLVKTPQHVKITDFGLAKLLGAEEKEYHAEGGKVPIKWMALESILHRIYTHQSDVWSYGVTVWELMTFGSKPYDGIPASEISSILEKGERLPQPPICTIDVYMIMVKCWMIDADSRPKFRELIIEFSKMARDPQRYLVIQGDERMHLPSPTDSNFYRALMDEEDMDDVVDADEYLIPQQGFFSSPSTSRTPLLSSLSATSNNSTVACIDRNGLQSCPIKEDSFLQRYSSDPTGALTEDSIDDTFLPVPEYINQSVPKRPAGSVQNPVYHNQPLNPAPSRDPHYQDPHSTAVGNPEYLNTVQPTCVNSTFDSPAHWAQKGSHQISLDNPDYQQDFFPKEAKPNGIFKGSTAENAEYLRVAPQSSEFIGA

Q: For `Clc1ccc(Nc2ncnc3[nH]ccc23)cc1` [Compound 4, N^4-(4-chlorophenyl)-7H-pyrrolo[2,3-d]pyrimidine-4-amine], which IC50 (aurora A kinase (AURKA); 10 µM ATP, triplicate, read-out: AURKA IC50 ± SD) is on record?
A: The IC50 was 5.15 ± 0.37 µM.

Q: And the IC50 (aurora A kinase (AURKA); 10 µM ATP/0.2 mg/ml Kemptide, read-out: Aurora A IC50 (dose-response curve, supplement))?
A: The IC50 was 5.2 µM.

Q: And the “Aurora A % Activity Set1” value (aurora A kinase (AURKA); Log[nM] 0)?
A: The value was 98%.

Q: What about the “Aurora A % Activity Set2” value (aurora A kinase (AURKA); Log[nM] 0) of the same molecule?
A: The value was 101%.

Q: And the “Aurora A % Activity Set3” value (aurora A kinase (AURKA); Log[nM] 0)?
A: Its value is 97%.

Q: What about the “Aurora A % Activity Set1” value (aurora A kinase (AURKA); Log[nM] 1.0) of the same molecule?
A: Its value is 99%.

Q: And the “Aurora A % Activity Set2” value (aurora A kinase (AURKA); Log[nM] 1.0)?
A: Its value is 98%.

Q: And the “Aurora A % Activity Set3” value (aurora A kinase (AURKA); Log[nM] 1.0)?
A: The value was 100%.

Q: What about the “Aurora A % Activity Set1” value (aurora A kinase (AURKA); Log[nM] 1.5) of the same molecule?
A: Its value is 104%.

Q: What about the “Aurora A % Activity Set2” value (aurora A kinase (AURKA); Log[nM] 1.5) of the same molecule?
A: The value was 108%.

Q: And the “Aurora A % Activity Set3” value (aurora A kinase (AURKA); Log[nM] 1.5)?
A: Its value is 102%.

Q: What about the “Aurora A % Activity Set1” value (aurora A kinase (AURKA); Log[nM] 2.0) of the same molecule?
A: The value was 105%.

Q: What about the “Aurora A % Activity Set2” value (aurora A kinase (AURKA); Log[nM] 2.0) of the same molecule?
A: Its value is 107%.

Q: And the “Aurora A % Activity Set3” value (aurora A kinase (AURKA); Log[nM] 2.0)?
A: Its value is 104%.

Q: What about the “Aurora A % Activity Set1” value (aurora A kinase (AURKA); Log[nM] 2.5) of the same molecule?
A: Its value is 103%.

Q: What about the “Aurora A % Activity Set2” value (aurora A kinase (AURKA); Log[nM] 2.5) of the same molecule?
A: Its value is 99%.

Q: What about the “Aurora A % Activity Set3” value (aurora A kinase (AURKA); Log[nM] 2.5) of the same molecule?
A: Its value is 101%.

Q: And the “Aurora A % Activity Set1” value (aurora A kinase (AURKA); Log[nM] 3.0)?
A: The value was 88%.

Q: What about the “Aurora A % Activity Set2” value (aurora A kinase (AURKA); Log[nM] 3.0) of the same molecule?
A: The value was 93%.

Q: And the “Aurora A % Activity Set3” value (aurora A kinase (AURKA); Log[nM] 3.0)?
A: Its value is 86%.

Q: And the “Aurora A % Activity Set1” value (aurora A kinase (AURKA); Log[nM] 3.5)?
A: Its value is 66%.

Q: And the “Aurora A % Activity Set2” value (aurora A kinase (AURKA); Log[nM] 3.5)?
A: The value was 69%.

Q: And the “Aurora A % Activity Set3” value (aurora A kinase (AURKA); Log[nM] 3.5)?
A: Its value is 68%.

Q: And the “Aurora A % Activity Set1” value (aurora A kinase (AURKA); Log[nM] 4.0)?
A: The value was 25%.

Q: What about the “Aurora A % Activity Set2” value (aurora A kinase (AURKA); Log[nM] 4.0) of the same molecule?
A: The value was 28%.

Q: What about the “Aurora A % Activity Set3” value (aurora A kinase (AURKA); Log[nM] 4.0) of the same molecule?
A: Its value is 25%.

Q: What about the “Aurora A % Activity Set1” value (aurora A kinase (AURKA); Log[nM] 4.5) of the same molecule?
A: Its value is 11%.

Q: What about the “Aurora A % Activity Set2” value (aurora A kinase (AURKA); Log[nM] 4.5) of the same molecule?
A: The value was 11%.

Q: And the “Aurora A % Activity Set3” value (aurora A kinase (AURKA); Log[nM] 4.5)?
A: The value was 11%.

Q: And the “Aurora A % Activity Set1” value (aurora A kinase (AURKA); Log[nM] 5.0)?
A: The value was 9%.

Q: What about the “Aurora A % Activity Set2” value (aurora A kinase (AURKA); Log[nM] 5.0) of the same molecule?
A: Its value is 10%.

Q: And the “Aurora A % Activity Set3” value (aurora A kinase (AURKA); Log[nM] 5.0)?
A: The value was 9%.

Q: And the IC50 (EGFR; 10 µM ATP, triplicate, read-out: EGFR IC50 ± SD)?
A: The IC50 was 0.0849 ± 0.0159 µM.

Q: And the IC50 (EGFR; 10 µM ATP/0.2 mg/ml Poly-Glu-Tyr, read-out: EGFR IC50 (dose-response curve, supplement))?
A: Its IC50 is 0.0845 µM.

Q: What about the “EGFR % Activity Set1” value (EGFR; Log[nM] 0) of the same molecule?
A: Its value is 102%.

Q: And the “EGFR % Activity Set2” value (EGFR; Log[nM] 0)?
A: Its value is 96%.

Q: And the “EGFR % Activity Set3” value (EGFR; Log[nM] 0)?
A: Its value is 97%.

Q: What about the “EGFR % Activity Set1” value (EGFR; Log[nM] 1.0) of the same molecule?
A: The value was 102%.

Q: What about the “EGFR % Activity Set2” value (EGFR; Log[nM] 1.0) of the same molecule?
A: Its value is 97%.

Q: What about the “EGFR % Activity Set3” value (EGFR; Log[nM] 1.0) of the same molecule?
A: Its value is 96%.

Q: And the “EGFR % Activity Set1” value (EGFR; Log[nM] 1.5)?
A: Its value is 65%.

Q: And the “EGFR % Activity Set2” value (EGFR; Log[nM] 1.5)?
A: Its value is 61%.

Q: And the “EGFR % Activity Set3” value (EGFR; Log[nM] 1.5)?
A: Its value is 64%.

Q: And the “EGFR % Activity Set1” value (EGFR; Log[nM] 2.0)?
A: The value was 50%.

Q: What about the “EGFR % Activity Set2” value (EGFR; Log[nM] 2.0) of the same molecule?
A: Its value is 45%.

Q: What about the “EGFR % Activity Set3” value (EGFR; Log[nM] 2.0) of the same molecule?
A: Its value is 52%.

Q: And the “EGFR % Activity Set1” value (EGFR; Log[nM] 2.5)?
A: The value was 19%.

Q: What about the “EGFR % Activity Set2” value (EGFR; Log[nM] 2.5) of the same molecule?
A: The value was 19%.

Q: And the “EGFR % Activity Set3” value (EGFR; Log[nM] 2.5)?
A: Its value is 22%.

Q: And the “EGFR % Activity Set1” value (EGFR; Log[nM] 3.0)?
A: Its value is 10%.

Q: And the “EGFR % Activity Set2” value (EGFR; Log[nM] 3.0)?
A: Its value is 10%.

Q: What about the “EGFR % Activity Set3” value (EGFR; Log[nM] 3.0) of the same molecule?
A: Its value is 12%.

Q: And the “EGFR % Activity Set1” value (EGFR; Log[nM] 3.5)?
A: Its value is 4%.

Q: What about the “EGFR % Activity Set2” value (EGFR; Log[nM] 3.5) of the same molecule?
A: The value was 4%.

Q: What about the “EGFR % Activity Set3” value (EGFR; Log[nM] 3.5) of the same molecule?
A: The value was 4%.

Q: What about the “EGFR % Activity Set1” value (EGFR; Log[nM] 4.0) of the same molecule?
A: The value was 2%.

Q: What about the “EGFR % Activity Set2” value (EGFR; Log[nM] 4.0) of the same molecule?
A: The value was 2%.

Q: And the “EGFR % Activity Set3” value (EGFR; Log[nM] 4.0)?
A: The value was 2%.

Q: And the “EGFR % Activity Set1” value (EGFR; Log[nM] 4.5)?
A: Its value is 1%.

Q: And the “EGFR % Activity Set2” value (EGFR; Log[nM] 4.5)?
A: The value was 1%.

Q: What about the “EGFR % Activity Set3” value (EGFR; Log[nM] 4.5) of the same molecule?
A: The value was 1%.

Q: What about the “EGFR % Activity Set1” value (EGFR; Log[nM] 5.0) of the same molecule?
A: The value was 1%.

Q: And the “EGFR % Activity Set2” value (EGFR; Log[nM] 5.0)?
A: Its value is 1%.

Q: And the “EGFR % Activity Set3” value (EGFR; Log[nM] 5.0)?
A: The value was 1%.
